Measured values as given in patent publication US20240374631A1, “A COMPOSITION FOR IMPROVING GUT MICROBIOTA, BEHAVIOURAL PATTERN, ALPHA-SYNUCLEIN LEVELS, SLEEP PATTERN AND/OR SERUM MELATONIN” (GN Corporation Co Ltd, priority 2021, published 2024).

System: gut microbiota
Assay: Gut microbiome analysis (16S rRNA sequencing of fecal samples) in STAM model of NASH
Format: in vivo, C57BL/6J mice
Source text: The study is reported in accordance with Animal Research: Reporting of In Vivo Experiments (ARRIVE) guidelines. C57BL/6J mice were obtained from Japan SLC, Inc. (Japan). All animals used in this study were cared for under the following guidelines: Act on Welfare and Management of Animals (Ministry of the Environment, Japan, Act No. 105 of Oct. 1, 1973), standards relating to the care and management of laboratory animals and relief of pain (Notice No. 88 of the Ministry of the Environment, Japan, Apr. 28, 2006) and the guidelines for proper conduct of animal experiments (Science Council of Japan, Jun. 1, 2006). Protocol approvals were obtained from SMC Laboratories, Japan's IACUC (Study reference no: […] Mice were maintained in a specific pathogen-free (SPF) facility under controlled conditions of temperature (23±3° C.), humidity (50±20%), lighting (12-hour artificial light and dark cycles; light from 8:00 to 20:00) and air exchange. The STAM model of NASH was induced as previously described [D10]. Mice were given a single subcutaneous injection of 200 μg streptozotocin (STZ, Sigma-Aldrich, USA) solution 2 days after birth and fed with a high-fat diet (HFD, 57 kcal % fat, Cat #HFD32, CLEA Japan, Inc., Japan) from 4-9 weeks of age. All mice develop liver steatosis and diabetes and at […] mice had established steatohepatitis, histologically. Studygroups: There were five study groups, described below. Eight mice were included in each study group. Eight NASH mice were orally administered vehicle supplemented with AFO-202 Beta Glucan at a dose of 1 mg/kg in a volume of 5 mL/kg once daily from 6 to 9 weeks of age. Eight NASH mice were orally administered vehicle supplemented with Telmisartan at a dose of 10 mg/kg once daily from 6 to 9 weeks of age. Frequency: Fecal samples were collected at the 6 weeks of age (before administration) and 9 weeks of age (before sacrifice). Procedure: At 6 weeks of age, fecal samples were collected from each mouse by clean catch method. […] A sterile petri dish was placed on the bench. Gently massage the abdomen, position the bottom of mouse over a fresh petri dish, and collect 1-2 fecal pellets. At sacrifice, fecal samples were aseptically collected from cecum. The tubes with feces were placed on ice immediately. These tubes were snap frozen in liquid nitrogen and stored at -80° C. for shipping. In this analysis, the 16S rRNA sequence data acquired by the next-generation sequencer from the fecal […] was used to perform community analysis using the QIIME2 program for microbial community analysis. The raw read data in FASTQ format output from the next-generation sequencer was trimmed to remove adapter sequences and low QV regions that may be included in the data. Cutadapt was used to remove adapter sequences from DNA sequencing reads. Trimmomatic was used as read trimming tool for Illumina NGS data. The adapter sequence was trimmed using the adapter trimming program “cutadapt” if the Trimming of the region at the end of the read sequence overlapped the corresponding sequence by at least one base (mismatch tolerance: 20%). When reads containing N were present in at least one of Read1 and Read2, both Read1 and Read2 were removed. Trimming of low QV regions was performed on the read data after processing using the QV trimming program “Trimmomatic” under the following conditions. The window of 20 bases is slid from the 5' side, and the area where the average QV is less than 20 is trimmed. After trimming, only the reads with more than 50 bases remaining in both Read1 and Read2 were taken as output. The microbial community analysis based on 16S rRNA sequence was performed on the sequence data trimmed in the previous section using the microbial community analysis program “QIIME2”. The annotation program “sklearn” included in QIIME2 is used to annotate the ASV (OTU) sequences. […]

## CCCc1nc2c(C)cc(-c3nc4ccccc4n3C)cc2n1Cc1ccc(-c2ccccc2C(=O)O)cc1 [Telmisartan]
post-intervention, table row r426
  Abundance: Family Erysipelotrichaceae, Genus —, Species —: 0
post-intervention, table row r427
  Abundance: Family Deferribacteraceae, Genus Mucispirillum, Species schaedleri: 0
post-intervention, table row r428
  Abundance: Family Methylobacteriaceae, Genus Methylobacterium, Species Other: 0
post-intervention, table row r429
  Abundance: Family Methanobacteriaceae, Genus Methanobrevibacter, Species —: 0
post-intervention, table row r431
  Abundance: Family Lachnospiraceae, Genus Other, Species Other: 0
post-intervention, table row r432
  Abundance: Family Lachnospiraceae, Genus Dorea, Species —: 0
post-intervention, table row r433
  Abundance: Family Lachnospiraceae, Genus Dorea, Species —: 0
post-intervention, table row r434
  Abundance: Family Lachnospiraceae, Genus —, Species —: 0
post-intervention, table row r435
  Abundance: Family Erysipelotrichaceae, Genus —, Species —: 0
post-intervention, table row r437
  Abundance: Family Other, Genus Other, Species Other: 0
post-intervention, table row r438
  Abundance: Family Ruminococcaceae, Genus Ruminococcus, Species —: 11
post-intervention, table row r439
  Abundance: Family Lachnospiraceae, Genus Other, Species Other: 0
post-intervention, table row r440
  Abundance: Family Erysipelotrichaceae, Genus Clostridum, Species cocleatum: 0
post-intervention, table row r441
  Abundance: Family Clostridiaceae, Genus —, Species —: 0
post-intervention, table row r442
  Abundance: Family S24-7, Genus —, Species —: 0
post-intervention, table row r443
  Abundance: Family Ruminococcaceae, Genus Oscillospira, Species —: 10
post-intervention, table row r446
  Abundance: Family Erysipelotrichaceae, Genus —, Species —: 9
post-intervention, table row r447
  Abundance: Family Streptococcaceae, Genus —, Species —: 0
post-intervention, table row r448
  Abundance: Family Erysipelotrichaceae, Genus —, Species —: 0
post-intervention, table row r449
  Abundance: Family Turicibacteraceae, Genus Turicibacter, Species —: 0
post-intervention, table row r450
  Abundance: Family S24-7, Genus —, Species —: 0
post-intervention, table row r451
  Abundance: Family Ruminococcaceae, Genus Oscillospira, Species —: 0
post-intervention, table row r452
  Abundance: Family Lachnospiraceae, Genus —, Species —: 0
post-intervention, table row r454
  Abundance: Family Erysipelotrichaceae, Genus —, Species —: 0
post-intervention, table row r455
  Abundance: Family Ruminococcaceae, Genus Ruminococcus, Species —: 7
post-intervention, table row r456
  Abundance: Family Moraxellaceae, Genus Psychrobacter, Species Other: 0
post-intervention, table row r457
  Abundance: Family Paenibacillaceae, Genus Other, Species Other: 0
post-intervention, table row r458
  Abundance: Family Lachnospiraceae, Genus Coprococcus, Species —: 0
post-intervention, table row r459
  Abundance: Family Bacillaceae, Genus Bacillus, Species —: 0
post-intervention, table row r460
  Abundance: Family Enterococcaceae, Genus Vagococcus, Species —: 0
post-intervention, table row r462
  Abundance: Family Lachnospiraceae, Genus —, Species —: 0
post-intervention, table row r466
  Abundance: Family Ruminococcaceae, Genus Oscillospira, Species —: 0
post-intervention, table row r468
  Abundance: Family Erysipelotrichaceae, Genus —, Species —: 0
post-intervention, table row r469
  Abundance: Family Other, Genus Other, Species Other: 4
post-intervention, table row r470
  Abundance: Family Clostridiaceae, Genus Clostridium, Species Other: 0
post-intervention, table row r473
  Abundance: Family Ruminococcaceae, Genus —, Species —: 0
post-intervention, table row r474
  Abundance: Family Deferribacteraceae, Genus Mucispirillum, Species schaedleri: 0
post-intervention, table row r475
  Abundance: Family Turicibacteraceae, Genus Turicibacter, Species —: 0
post-intervention, table row r478
  Abundance: Family [Mogibacteriaceae], Genus —, Species —: 0
post-intervention, table row r480
  Abundance: Family Lachnospiraceae, Genus Dorea, Species longicateria: 0
post-intervention, table row r481
  Abundance: Family Ruminococcaceae, Genus —, Species —: 0
post-intervention, table row r482
  Abundance: Family Lachnospiraceae, Genus —, Species —: 0
post, line r8
  Abundance Erysipelotrichaceae/Allobaculum/—: 622
post, line r9
  Abundance Turicibacteraceae/Turicibacter/—: 786
post, line r10
  Abundance Desulfovibrionaceae/—/—: 6012
post, line r11
  Abundance Clostridiaceae/Other/Other: 723
post, line r12
  Abundance Lactobacillaceae/Lactobacillus/—: 254
post, line r13
  Abundance Streptococcaceae/Lactococeus/—: 1948
post, line r14
  Abundance Bacteroidaceae/Bacteroides/—: 8412
post, line r15
  Abundance [Paraprevotellaceae]/[Prevotella]/—: 7582
post, line r16
  Abundance —/—/—: 6029
post, line r17
  Abundance Deferribacteraceae/Mucispirillum/schaedleri: 1921
post, line r18
  Abundance Bacteroidaceae/Bacteroides/acidifaciens: 2571
post, line r19
  Abundance —/—/—: 2764
post, line r20
  Abundance Verrucomicrobiaceae/Akkermansia/muciniphila: 320
post, line r22
  Abundance Enterobacteriaceae/Other/Other: 40
post, line r23
  Abundance Lactobacillaceae/Lactobacillus/—: 513
post, line r24
  Abundance S24-7/—/—: 411
post, line r25
  Abundance Lachnospiraceae/—/—: 1545
post, line r26
  Abundance Peptostreptocpccaceae/—/—: 181
post, line r27
  Abundance Lachnospiraceae/[Ruminococcus]/gnavus: 898
post, line r28
  Abundance Lachnospiraceae/Coprococeus/—: 1468
post, line r29
  Abundance Bifidobacteriaceae/Bifidobacterium/pseudolongum: 111
post, line r30
  Abundance Enterobacteriaceae/Proteus/—: 1153
post, line r31
  Abundance Lactobacillaceae/Lactobacillus/Other: 111
post, line r32
  Abundance S24-7/—/—: 329
post, line r33
  Abundance Porphyromonadaceae/Parabacteroides/distasonis: 1437
post, line r34
  Abundance Clostridiaceae/—/—: 79
post, line r35
  Abundance —/—/—: 536
post, line r36
  Abundance Desulfovibrionaceae/Desulfovibrio/—: 503
post, line r37
  Abundance S24-7/—/—: 271
post, line r38
  Abundance Coriobacteriaceae/Adlercreutzia/—: 135
post, line r39
  Abundance S24-7/—/—: 527
post, line r40
  Abundance Erysipelotrichaceae/Clostridium/cocleatum: 696
post, line r41
  Abundance Ruminococcaceae/Ruminococcus/—: 266
post, line r43
  Abundance Lachnospiraceae/Other/Other: 436
post, line r44
  Abundance Lachnospiraceae/[Ruminococcus]/gnavus: 87
post, line r45
  Abundance Turicibacteraceae/Turicibacter/—: 0
post, line r46
  Abundance Lachnospiraceae/—/—: 253
post, line r47
  Abundance Bacteroidaceae/Bacteroides/—: 2042
post, line r48
  Abundance Ruminococcaceae/Oscillospira/—: 621
post, line r49
  Abundance Clostridiaceae/Other/Other: 70
post, line r50
  Abundance Lachnospiraceae/Roseburia/—: 927
post, line r51
  Abundance Lachnospiraceae/—/—: 698
post, line r52
  Abundance S24-7/—/—: 104
post, line r53
  Abundance Lachnospiraceae/[Ruminococcus]/gnavus: 126
post, line r56
  Abundance Lachnospiraceae/Coprococcus/—: 562
post, line r57
  Abundance S24-7/—/—: 144
post, line r58
  Abundance S24-7/—/—: 410
post, line r60
  Abundance Lachnospiraceae/Other/Other: 245
post, line r61
  Abundance Lachnospiraceae/[Ruminococcus]/gnavus: 686
post, line r62
  Abundance Erysipelotrichaceae/Allobaculum/—: 0
post, line r63
  Abundance Desulfovibrionaceae/Desulfovibrio/C21_c20: 43
post, line r64
  Abundance S24-7/—/—: 152
post, line r66
  Abundance Streptococcaceae/Lactococcus/garvieae: 8
post, line r68
  Abundance Enterobacteriaceae/Proteus/—: 386
post, line r69
  Abundance Lachnospiraceae/—/—: 786
post, line r70
  Abundance S24-7/—/—: 74
post, line r71
  Abundance Lachnospiraceae/[Ruminococcus]/gnavus: 331
post, line r73
  Abundance Clostridiaceae/Clostridium/Other: 0
post, line r74
  Abundance Lachnospiraceae/—/—: 15
post, line r75
  Abundance Clostridiaceae/Other/Other: 49
post, line r78
  Abundance S24-7/—/—: 101
